Assay results published in patent publication US20190015400A1, “Antifungal Compositions” (priority 2017, published 2019).

Columns and labels:
[1] = test system: C. albicans ATCC 64124 (strain F) biofilm; experiment: Biofilm disruption assay (XTT, SMIC99), azoles + compound 2; assay type: cell-based, Candida albicans
Description: In order to investigate the synergistic effect of azoles and our compounds on inhibiting biofilm formation of C. albicans ATCC 64124 (strain F), we performed a biofilm disruption assay in a checkerboard setup and used XTT [2,3-bis(2-methoxy-4-nitro-5-sulfophenyl)-2H-tetrazolium-5-carboxanilide] reduction to examine the metabolic activity of the biofilm. Briefly, C. albicans ATCC 64124 (strain F) was grown overnight in YEPD broth at 35° C. The culture was then diluted to an OD600 of 0.12 (equivalent to 1×10^6 CFU/mL) and 100 μL was placed into each well of a 96-well plate. The cells were incubated at 37° C. for 24 h for growth. The following day, the spent medium containing planktonic cells was aspirated and each wells were carefully washed three times with sterile phosphate buffer saline (PBS). […] The negative control (medium only) and the positive control (biofilm plus medium) wells were also included in the same 96-well plate. The plates were then incubated at 37° C. statically for additional 24 h and then washed with sterile PBS. 100 μL of a XTT (0.5 mg/mL)/menadione (1 μM) solution was added to each well, covered with aluminum foil, and incubated for 2 h at 37° C. Then, 80 μL of the colored supernatant from each well was transferred to a new 96-well plate, and the absorption was read at OD490. The percent metabolic activity of the formed biofilm at various drug concentration combinations was calculated by dividing the metabolic activity of biofilm formed for that well by that of the biofilm formed in the growth control well (in the absence of any drug). For these experiments, the sessile MIC (SMIC99) was determined, which is defined as the drug concentration required to inhibit the metabolic activity of biofilm by 99% compared to the growth control. The assay for each combination was performed in duplicates.

J774A.1 cells = experiment: Mammalian cytotoxicity assay, azoles and compound 2
Excerpt: David K. Orren (University of Kentucky, Lexington, Ky.) and Prof. David J. Feola (University of Kentucky, Lexington, Ky.), respectively.

[2] = test system: C. albicans ATCC 10231 (strain B) biofilm; experiment: Biofilm disruption assay (XTT, SMIC90), POS and EBA; assay type: cell-based, Candida albicans; settings: drug alone
Description: (§1) Biofilm disruption assays. […] Biofilm assays were performed in 96-well plates using XTT [2,3-bis(2-methoxy-4-nitro-5-sulfophenyl)-2H-tetrazolium-5-carboxanilide] to measure the viability of the biofilm as previously described. An overnight culture of yeast was grown at 35° C. in YEPD medium with shaking at 200 rpm. The overnight culture was diluted in RPMI 1640 medium to an OD600 between 0.12 and 0.15 to make a working stock. Working stock was transferred to the 96-well plate in 100 μL aliquots, leaving one column empty for the sterile control. The plates were incubated at 37° C. for 24 h to allow formation of the biofilm. The medium and planktonic cells from the plate were then aspirated. PBS was then used to wash any remaining planktonic cells off of the biofilm wells. 100 μL of PBS was aliquoted into wells and then removed. The wells were washed 3 times with PBS. […] Plates were incubated at 37° C. for 24 h. Finally, the plates were washed 3 times with PBS before adding 100 μL of XTT dye. The XTT was prepared by dissolving XTT at 0.5 mg/mL concentration in sterile PBS. Before adding to a plate, 1 μL of 10 mM menadione in acetone was added to 10 mL of the 0.5 mg/mL solution of XTT. After addition of XTT (containing menadione), the plates were incubated at 3 h at 37° C. in the dark. 80 μL of liquid from each well was transferred to a new plate. Plates were then read with a SpectraMax M5 plate reader (Molecular Devices, Sunnyvale, Calif., USA) for absorbance at 450 nm. For these experiments, we determined the sessile MIC (SMIC90), which is defined as the drug concentration required to inhibit the metabolic activity of biofilm by 90% compared to the growth control. The SMIC90 values were used to calculate the FICI as described above (TABLE 10). The plates used to determine the SMIC90 are provided in FIGS. 91A-H. Each assay was performed in duplicate.

[3] = test system: C. albicans ATCC 64124 (strain F) biofilm; experiment: as above; assay type: cell-based, Candida albicans; settings: drug alone
Description: as §1

[4] = test system: C. glabrata ATCC 2001 (strain H) biofilm; experiment: as above; assay type: cell-based, Candida glabrata
Description: as §1

Question: What does the source list for `CC[C@@H]([C@H](C)O)n1ncn(-c2ccc(N3CCN(c4ccc(OC[C@@H]5CO[C@@](Cn6cncn6)(c6ccc(F)cc6F)C5)cc4)CC3)cc2)c1=O` [POS, posaconazole]?
Answer: SMIC alone (μg/mL) Azole ([1]; azole alone, sessile cells): >32 µg/mL; SMIC combo (μg/mL) Azole ([1]; azole in combination with compound 2): 0.5 µg/mL; cell survival (J774A.1 cells; drug alone at 8 μg/mL): 80±9%; cell survival (J774A.1 cells; drug alone at 16 μg/mL): ~46±3%; SMIC90 [2]: > 32 µg/mL; SMIC90 [3]: > 32 µg/mL; SMIC90 combo ([4]; combination POS + EBA, SMIC90 of the labelled drug): 0.06 µg/mL; SMIC90 ([4]; drug alone): > 32 µg/mL
